# Measured values: US7592025B2, “Vehicles for oral care with magnolia bark extract” (GIC Innovations Company, priority 2005, dated 2009)
# Experiments:
# incubated saliva = test: MIC of surface active agents and emulsifiers by two-fold serial dilution in nutrient broth; assay type: cell-based; conditions: for germ-kill efficacy (in words): assessment of Table 9 results; for MIC (ppm): incubated saliva, 24 hours at 37° C.
# Experimental: (§1) To evaluate the germ-kill efficacy and synergist effect when two or more germ-kill actives are combined, testing was performed to determine the ratio of MBE to surface active agent. The germ-kill active and/or surface active agent were dissolved in ethanol or sterile water to give an initial concentration 0.1% to 1%. The solution was diluted with a nutrient broth to give an initial concentration of 0.05% to 0.5%, which was then serially diluted two-fold so that each subsequent dilution contained 50% of the compound concentration of the previous dilution while maintaining a constant level of nutrients for each dilution. These dilutions were inoculated with representative oral microorganisms, or incubated saliva, and incubated for 24 hours at 37° C. For each surface active agent, the lowest dilution that was not turbid was registered as the MIC. The MBC was determined by transferring 10 microliter of liquid from non-turbid tubes to fresh growth media and incubated for 48 hours.
# S. mutans = test: MIC and fractional inhibitory index (FIC) of combinations by two-fold serial dilution; assay type: cell-based, Streptococcus mutans; conditions: 24 hours at 37° C., ratio as in label
# Experimental: as §1
# (1) where an FIC value of less than 1.0 is synergistic, an FIC between 1.0 and 2.0 is additive, and an FIC greater than 2.0 is antagonistic.
# [1] = tested on: bacteria from freshly-collected stimulated whole saliva (plaque biofilm); test: Mixed culture saliva biofilm on saliva-coated hydroxyapatite discs, timed exposure to actives; assay type: cell-based; conditions: for pH (of medium): second series (Table 7)
# Experimental: Although useful to show the comparative effect of Magnolia Bark Extract on biofilm formation and MIC growth, the foregoing test procedure may not effectively mimic the in vivo exposure of an oral care product to a developing plaque biofilm. In an in vivo situation, the active could be exposed to the plaque for a defined period of time at a set frequency (for example, for 5 minutes, three times a day). Therefore, a series of comparative experiments were conducted to mimic the in vivo use of potential active ingredients. To perform the tests the saliva compositions listed below in Tables 2 and 3 were prepared.
# A mixed culture system that utilizes the bacteria from freshly-collected stimulated whole saliva was used. Saliva cell pellets were used to inoculate saliva-coated hydroxyapatite (S-HA) discs. The discs were placed in 24-well cell culture plates and incubated for up to 3 days. Biofilms were exposed to actives on days 2 and 3 (starting at 18 hours), and quantified on day 4. The number of bacteria was determined by spectrophotometric absorbance or optical density (OD) at 600 nm. The five phases of the experiment were: pellicle formation; bacterial attachment; biofilm growth; exposure to actives; and bacterial enumeration.
# To form the pellicles, HA Discs were ultrasonically washed in deionized water and air-dried, then autoclaved. The discs were placed in a 24-well plate with 1 ml 50% sterile saliva (1 part sterile whole saliva: 1 part saliva buffer, filter sterilize after preparation) for 2 hours on slow agitation at room temperature. […]
# After overnight incubation (day 2), discs were exposed to controls and actives. […] On day 4 the discs were removed from the medium, the medium pH was measured to obtain an indication of metabolic activity, and the discs were placed into tubes with 2.5 ml PBS, vortexed for 20 sec, and then placed into the ultrasonic bath for another 20 sec. The suspension was transferred into cuvettes and the bacterial cell density determined by OD measurements at 600 nm. […]
Compound,germ-kill efficacy (in words) (incubated saliva),MIC (ppm) (incubated saliva),further results
"CCCCCCCCCCCC(=O)OCCOCCOCCOCCOCCOCCOCCOCCOCCOCCOCCOCCOCCOCCOCCOCCOCCOCCOCCOCCOCC(OCCOCCOCCOCCOCCOCCOCCOCCOCCOCCOCCOCCOCCOCCOCCOCCOCCOCCOCCOCCO)C1OCC(OCCOCCOCCOCCOCCOCCOCCOCCOCCOCCOCCOCCOCCOCCOCCOCCOCCOCCOCCOCCO)C1OCCOCCOCCOCCOCCOCCOCCOCCOCCOCCOCCOCCOCCOCCOCCOCCOCCOCCOCCOCCO (stereo not shown) [Tween 20, Polysorbate 20]",weak or non,,
"N=C(NCCCCCCNC(=N)NC(=N)Nc1ccc(Cl)cc1)NC(=N)Nc1ccc(Cl)cc1.O=C(O)[C@H](O)[C@@H](O)[C@H](O)[C@H](O)CO.O=C(O)[C@H](O)[C@@H](O)[C@H](O)[C@H](O)CO [Chlorhexidine gluconate, reference compound]",,2,MIC/ppm (S. mutans): 2 ppm
Sodium Brasslate,moderate,500,
Sucrose Stearate,weak or non,>500,
Sodium Stearoyl Lactylate,weak or non,>3000,
Cocamidopropyl Betaine,good,,
"CCCCCCCCCCCCOS(=O)(=O)[O-].[Na+] [SLS, Sodium Lauryl Sulfate]",good,,pH (of medium) ([1]; SLS 1000 ppm): 5.7
"[H]/N=C(\N/C(=N/[H])NCCCCCCNC(=N)NC(=N)Nc1ccc(Cl)cc1)Nc1ccc(Cl)cc1 [CHX, Chlorhexidine]",,,"pH (of medium, indication of metabolic activity) ([1]; CHX 0.12%, exposure one minute two times a day, day 4): 8.8; pH (of medium) ([1]; CHX 0.1% (1000 ppm)): 8.8"
Sucrose Distearate,weak or non,>500,
